Measurements published in patent US20150166523A1, “BRANCHED CHAIN ALKYL HETEROAROMATIC RING DERIVATIVE” (TAISHO PHARMACEUTICAL CO., LTD., priority 2012, published 2015).

Tests used:
[1] = target: T1, orexin-2 receptor (hOX2R) (Homo sapiens, UniProt O43614); assay: Measurement of orexin antagonistic activity (intracellular Ca2+ fluorescence, FDSS) on hOX2R; format: cell-based; details: CHO cells forcibly expressing hOX2R; Fluo-4AM; ligand peptide (substituted human orexin-A) 3 nM; compound preincubated 30 minutes; read-out: IC50 Value OX2
T1 construct: expressed in transfected cells; host or cells: Chinese hamster ovary (CHO) cells
T1 sequence (O43614 1-444): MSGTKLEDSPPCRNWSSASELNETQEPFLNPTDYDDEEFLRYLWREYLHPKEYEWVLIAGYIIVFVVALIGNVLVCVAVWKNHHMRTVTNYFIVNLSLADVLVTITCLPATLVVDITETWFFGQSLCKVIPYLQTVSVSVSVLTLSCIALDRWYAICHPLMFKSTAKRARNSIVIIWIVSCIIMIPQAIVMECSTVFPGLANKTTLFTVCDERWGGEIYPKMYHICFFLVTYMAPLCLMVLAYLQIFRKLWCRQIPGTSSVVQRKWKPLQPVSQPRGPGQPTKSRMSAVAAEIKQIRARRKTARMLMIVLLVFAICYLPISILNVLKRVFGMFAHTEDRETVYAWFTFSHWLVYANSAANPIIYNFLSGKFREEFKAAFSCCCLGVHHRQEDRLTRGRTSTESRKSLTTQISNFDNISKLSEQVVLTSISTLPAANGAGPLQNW
Protocol: (§1) The antagonistic activities of the test compounds on human orexin-1 receptor (hOX1R) and orexin-2 receptor (hOX2R) were measured by modifying from the method described in literature (Toshikatsu Okumura et al., Biochemical and Biophysical Research Communications, 280, 976-981, 2001). Chinese hamster ovary (CHO) cells forcibly expressing the hOX1R and hOX2R were seeded into a 96 well Black clear bottom plate (Nunc) at 20,000 cells per well, which were cultured in Ham's F-12 medium containing 0.1 mM MEM non-essential amino acids, 0.5 mg/mL G418, 10% fetal bovine serum (all by Invitrogen) for 16 hours under the conditions of 37° C., 5% CO2. After removing the medium, 100 μL of 0.5 μM Fluo-4AM ester (Dojin) in an assay buffer (25 mM HEPES (Dojin), Hank's balanced salt solution (Invitrogen), 0.1% bovine serum albumin, 2.5 mM probenecid, 200 μg/mL Amaranth (all by Sigma-Aldrich), pH 7.4) was added and the cells were incubated for 60 minutes at 37° C., 5% CO2. After removing the assay buffer containing fluo-4AM ester, the test compound was dissolved in dimethyl sulfoxide to be 10 mM and diluted with the assay buffer, 150 μL, of which was added and incubated for 30 minutes.
(§2) The reaction was measured for the fluorescence intensity of each well every second for 3 minutes using Functional Drug Screening System (FDSS; Hamamatsu Photonics K.K.), and the antagonistic activity was determined using the maximum fluorescence intensity as the indicator of intracellular Ca2+ concentration.

[2] = target: T2, human orexin-1 receptor (hOX1R) (Homo sapiens, UniProt O43613); assay: Measurement of orexin antagonistic activity (intracellular Ca2+ fluorescence, FDSS) on hOX1R; format: cell-based; details: CHO cells forcibly expressing hOX1R; Fluo-4AM; ligand peptide (substituted human orexin-A) 300 pM; compound preincubated 30 minutes; read-out: IC50 Value OX1
T2 construct: expressed in transfected cells; host or cells: Chinese hamster ovary (CHO) cells
T2 sequence (O43613 1-425): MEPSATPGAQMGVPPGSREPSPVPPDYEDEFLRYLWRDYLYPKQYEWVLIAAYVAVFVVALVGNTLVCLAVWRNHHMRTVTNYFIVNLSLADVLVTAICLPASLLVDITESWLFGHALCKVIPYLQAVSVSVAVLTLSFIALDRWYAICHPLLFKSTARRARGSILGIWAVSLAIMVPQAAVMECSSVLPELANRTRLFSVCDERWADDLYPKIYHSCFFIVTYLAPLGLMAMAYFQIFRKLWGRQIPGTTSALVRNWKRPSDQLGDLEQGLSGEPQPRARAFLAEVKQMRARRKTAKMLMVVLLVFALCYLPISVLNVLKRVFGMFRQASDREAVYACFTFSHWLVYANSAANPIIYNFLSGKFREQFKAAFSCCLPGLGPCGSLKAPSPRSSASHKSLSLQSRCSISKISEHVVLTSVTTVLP
Protocol: as §1, §2

| Structure (SMILES) | IC50 [1] | IC50 [2] |
| --- | --- | --- |
| Cc1ccc(-n2nccn2)c(C(=O)N(C)[C@H](Cn2ccc(-c3ccc(F)cn3)n2)C(C)C)c1 [Example 23, N-{(2S)-1-[3-(5-Fluoropyridin-2-yl)-1H-pyrazol-1-yl]-3-methylbutan-2-yl}-N,5-dimethyl-2-(2H-1,2,3-triazol-2-yl) benzamide] | 1890 nM | 134 nM |
| CC[C@@H](Cn1ccc(-c2ccc(F)cn2)n1)N(C)C(=O)c1cc(C)ccc1-n1nccn1 [Example 24, N-{(2S)-1-[3-(5-Fluoropyridin-2-yl)-1H-pyrazol-1-yl]butan-2-yl}-N,5-dimethyl-2-(2H-1,2,3-triazol-2-yl) benzamide] | 41.4 nM | 9.8 nM |
| CCN(C(=O)c1cc(C)ccc1-n1nccn1)[C@@H](C)Cn1cc(-c2ccc(F)cn2)cn1 [Example 25, N-Ethyl-N-{(2S)-1-[4-(5-fluoropyridin-2-yl)-1H-pyrazol-1-yl]propan-2-yl}5-methyl-2-(2H-1,2,3-triazol-2-yl) benzamide] | 6.4 nM | 0.7 nM |
| CCN(C(=O)c1nc(C)ccc1-n1nccn1)[C@@H](C)Cn1cc(-c2ccc(F)cc2)cn1 [Example 26, N-Ethyl-N-{(2S)-1-[4-(4-fluorophenyl)-1H-pyrazol-1-yl]propan-2-yl}-6-methyl-3-(2H-1,2,3-triazol-2-yl)pyridine-2-carboxamide] | 55.9 nM | 1.7 nM |
| CCN(C(=O)c1nc(C)ccc1-n1nccn1)[C@@H](C)Cn1cc(-c2ccc(F)c(F)c2)cn1 [Example 27, N-{(2S)-1-[4-(3,4-Difluorophenyl)-1H-pyrazol-1-yl]propan-2-yl}-N-ethyl-6-methyl-3-(2H-1,2,3-triazol-2-yl) pyridine-2-carboxamide] | 13.8 nM | 1.4 nM |
| Cc1ccc(-n2nccn2)c(C(=O)N(C)[C@@H](C)Cn2cc(-c3ccc(F)cc3)cn2)n1 [Example 28, N-{(2S)-1-[4-(4-Fluorophenyl)-1H-pyrazol-1-yl]propan-2-yl}-N,6-dimethyl-3-(2H-1,2,3-triazol-2-yl)pyridine-2-carboxamide] | 89.3 nM | 18.6 nM |
| Cc1ccc(-n2nccn2)c(C(=O)N(C)[C@@H](C)Cn2cc(-c3ccc(F)c(F)c3)cn2)n1 [Example 29, N-{(2S)-1-[4-(3,4-Difluorophenyl)-1H-pyrazol-1-yl]propan-2-yl}-N,6-dimethyl-3-(2H-1,2,3-triazol-2-yl)pyridine-2-carboxamide] | 25.6 nM | 10.1 nM |
| CCN(C(=O)c1cc(F)ccc1-n1nccn1)[C@@H](C)Cn1cc(-c2ccc(F)cn2)cn1 [Example 36, N-Ethyl-5-fluoro-N-{(2S)-1-[4-(5-fluoropyridin-2-yl)-1H-pyrazol-1-yl]propan-2-yl}-2-(2H-1,2,3-triazol-2-yl) benzamide] | 214 nM | 6.8 nM |
| COCCN(C(=O)c1cc(C)ccc1-n1nccn1)[C@@H](C)Cn1cc(-c2ccc(F)cn2)cn1 [Example 38, N-{(2S)-1-[4-(5-Fluoropyridin-2-yl)-1H-pyrazol-1-yl]propan-2-yl}-N-(2-methoxyethyl)-5-methyl-2-(2H-1,2,3-triazol-2-yl)benzamide] | 351 nM | 25.5 nM |
| COCCN(C(=O)c1cc(C)ccc1-n1nccn1)[C@@H](C)Cn1ccc(-c2ccc(F)cc2)n1 [Example 39, N-{(2S)-1-[3-(4-Fluorophenyl)-1H-pyrazol-1-yl]propan-2-yl}-N-(2-methoxyethyl)-5-methyl-2-(2H-1,2,3-triazol-2-yl)benzamide] | 5.5 nM | 1.2 nM |
| COCCN(C(=O)c1cc(C)ccc1-n1nccn1)[C@@H](C)Cn1ccc(-c2ccc(F)cn2)n1 [Example 40, N-{(2S)-1-[3-(5-Fluoropyridin-2-yl)-1H-pyrazol-1-yl]propan-2-yl]}-N-(2-methoxyethyl-5-methyl-2-(2H-1,2,3-triazol-2-yl)benzamide] | 12.4 nM | 1.4 nM |
| Cc1ccc(-n2nccn2)c(C(=O)N(CCO)[C@@H](C)Cn2cc(-c3ccc(F)cn3)cn2)c1 [Example 41, N-{(2S)-1-[4-(5-Fluoropyridin-2-yl)-1H-pyrazol-1-yl]propan-2-yl}-N-(2-hydroxyethyl)-5-methyl-2-(2H-1,2,3-triazol-2-yl)benzamide] | 86.3 nM | 30.9 nM |
| Cc1ccc(-n2nccn2)c(C(=O)N(CCO)[C@@H](C)Cn2ccc(-c3ccc(F)cc3)n2)c1 [Example 42, N-{(2S)-1-[3-(4-Fluorophenyl)-1H-pyrazol-1-yl]propan-2-yl}-N-(2-hydroxyethyl)-5-methyl-2-(2H-1,2,3-triazol-2-yl)benzamide] | 21.8 nM | 1.1 nM |
| Cc1ccc(-n2nccn2)c(C(=O)N(CCO)[C@@H](C)Cn2cc(-c3ccc(F)cc3)cn2)c1 [Example 43, N-{(2S)-1-[4-(4-Fluorophenyl)-1H-pyrazol-1-yl]propan-2-yl}-N-(2-hydroxyethyl)-5-methyl-2-(2H-1,2,3-triazol-2-yl)benzamide] | 13.6 nM | 3.5 nM |
| Cc1ccc(-n2nccn2)c(C(=O)N(CCO)[C@@H](C)Cn2ccc(-c3ccc(F)cn3)n2)c1 [Example 44, N-{(2S)-1-[3-(5-Fluoropyridin-2-yl)-1H-pyrazol-1-yl]propan-2-yl}-N-(2-hydroxyethyl)-5-methyl-2-(2H-1,2,3-triazol-2-yl)benzamide] | 25.9 nM | 1.3 nM |

Results, then the compound that gave them:

| IC50 [1] | IC50 [2] | Structure (SMILES) |
| --- | --- | --- |
| 35.7 nM | 1.2 nM | CCN(C(=O)c1cc(F)ccc1-c1ncccn1)[C@@H](C)Cn1cc(-c2ccc(F)cc2)cn1 [Example 30, N-Ethyl-5-fluoro-N-{(2S)-1-[4-(4-fluorophenyl)-1H-pyrazol-1-yl]propan-2-yl}-2-(pyrimidin-2-yl)benzamide] |
| 10.2 nM | 1 nM | CCN(C(=O)c1cc(F)ccc1-c1ncccn1)[C@@H](C)Cn1cc(-c2ccc(F)c(F)c2)cn1 [Example 31, N-{(2S)-1-[4-(3,4-Difluorophenyl)-1H-pyrazol-1-yl]propan-2-yl}-N-ethyl-5-fluoro-2-(pyrimidin-2-yl)benzamide] |
| 96.9 nM | 20.7 nM | C[C@@H](Cn1cc(-c2ccc(F)cc2)cn1)N(C)C(=O)c1cc(F)ccc1-c1ncccn1 [Example 32, 5-Fluoro-N-{(2S)-1-[4-(4-fluorophenyl)-1H-pyrazol-1-yl]propan-2-yl}-N-methyl-2-(pyrimidin-2-yl)benzamide] |
| 20.8 nM | 11.9 nM | C[C@@H](Cn1cc(-c2ccc(F)c(F)c2)cn1)N(C)C(=O)c1cc(F)ccc1-c1ncccn1 [Example 33, N-{(2S)-1-[4-(3,4-Difluorophenyl)-1H-pyrazol-1-yl]propan-2-yl}-5-fluoro-N-methyl-2-(pyrimidin-2-yl)benzamide] |
| 334 nM | 9.8 nM | CCN(C(=O)c1cc(F)ccc1-c1ncccn1)[C@@H](C)Cn1cc(-c2ccc(F)cn2)cn1 [Example 34, N-Ethyl-5-fluoro-N-{(2S)-1-[4-(5-fluoropyridin-2-yl)-1H-pyrazol-1-yl]propan-2-yl}-2-(pyrimidin-2-yl)benzamide] |
| 62.8 nM | 3.4 nM | CCN(C(=O)c1cc(C)ccc1-c1ncccn1)[C@@H](C)Cn1cc(-c2ccc(F)cn2)cn1 [Example 35, N-Ethyl-N-{(2S)-1-[4-(5-fluoropyridin-2-yl)-1H-pyrazol-1-yl]propan-2-yl}-5-methyl-2-(pyrimidin-2-yl)benzamide] |
| 83.1 nM | 7.1 nM | CCN(C(=O)c1cc(Cl)ccc1-c1ncccn1)[C@@H](C)Cn1cc(-c2ccc(F)cn2)cn1 [Example 37, 5-Chloro-N-ethyl-N-{(2S)-1-[4-(5-fluoropyridin-2-yl)-1H-pyrazol-1-yl]propan-2-yl}-2-(pyrimidin-2-yl) benzamide] |
